Earlier results as cited in patent publication US20020150627A1, “Composition containing creatine and phosphorus” (priority 2001, published 2002).
Read-outs that look alike come from different tables or passages of the source.

Tests used:
[1] = tested on: subjects; settings: for Increase power output compared to placebo according to Wallace et al: four times daily for 5 days
[2] = tested on: skeletal muscle; settings: 4×5 gram creatine per day for five to six days
[3] = 1000 mg four times daily for 5 days

| SMILES | VO2 max elevated [1, 3] [%] | Ventilatory anaerobic threshold elevated [1, 3] [%] | Increase power output compared to placebo according to Wallace et al [1] [%] | Increase power output compared to placebo according to Wallace et al ([1]; listed as phosphate) [%] | Increase power output compared to placebo according to Wallace et al ([1]; listed as Creatine, monohydrate) [%] | Increase power output compared to placebo according to Wallace et al ([1]; listed as creatine, monohydrate) [%] | Increase of skeletal muscle creatine content (average) [2] [%] | Phosphocreatine share of the increase in skeletal muscle creatine content [2] [%] |
| --- | --- | --- | --- | --- | --- | --- | --- | --- |
| O=P([O-])([O-])[O-].[Na+].[Na+].[Na+] [Phosphate, tribasic sodium phosphate] | 8 | 10 | 3 | 3 | – | – | – | – |
| CN(CC(=O)O)C(=N)N.O [creatine monohydrate] | – | – | – | – | 3 | 3 | 20 | 20 |
